#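 Values below derive from 48-hour exposures of cells grown in 96-well plates, with endpoints linearly interpolated between the two concentrations bracketing the appropriate inhibition level. GI50: concentration for 50% inhibition of growth. TGI: concentration producing complete growth inhibition.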
# Legend:
# Test in all cases: inhibition of tumour cell growth, NCI panel, 48 h
# [1] = tested on: NCI/ADR-RES ovarian
# [2] = tested on: OVCAR-3 ovarian
# [3] = tested on: TK-10 renal
# [4] = tested on: BT-549 breast
# [5] = tested on: HOP-62 NSCLC
# [6] = tested on: CCRF-CEM leukemia
# [7] = tested on: OVCAR-5 ovarian
# [8] = tested on: SK-MEL-2 melanoma
# [9] = tested on: UACC-62 melanoma
# [10] = tested on: SF-539 CNS
# [11] = tested on: COLO 205 colon
# [12] = tested on: SW-620 colon
# [13] = tested on: A549 NSCLC
# [14] = tested on: HS 578T breast
# [15] = tested on: SF-295 CNS
# [16] = tested on: HT29 colon
# [17] = tested on: HCT-15 colon
# [18] = tested on: SNB-19 CNS
# [19] = tested on: RXF 393 renal
# [20] = tested on: K-562 leukemia
# [21] = tested on: SNB-75 CNS
# [22] = tested on: MDA-MB-435
# [23] = tested on: T-47D breast
# [24] = tested on: MDA-MB-231 breast
# [25] = tested on: 786-0 renal
# [26] = tested on: HL-60(TB) leukemia
# [27] = tested on: U251 CNS
# [28] = tested on: OVCAR-8 ovarian
# [29] = tested on: CAKI-1 renal
# [30] = tested on: UACC-257 melanoma
# [31] = tested on: HCT-116 colon
# [32] = tested on: NCI-H226 lung
# [33] = tested on: SK-OV-3 ovarian
# [34] = tested on: MOLT-4 leukemia
# [35] = tested on: KM12 colon
# [36] = tested on: OVCAR-4 ovarian
# [37] = tested on: RPMI-8226 leukemia
# [38] = tested on: HOP-92 NSCLC
# [39] = tested on: PC-3 prostate
# [40] = tested on: ACHN renal
# [41] = tested on: EKVX NSCLC
# [42] = tested on: DU-145 prostate
# [43] = tested on: A498 renal
# [44] = tested on: SK-MEL-28 melanoma
# [45] = tested on: LOX IMVI melanoma
# [46] = tested on: NCI-H23 lung
# [47] = tested on: SK-MEL-5 melanoma
# [48] = tested on: NCI-H522 lung
# [49] = tested on: SN12C renal
# [50] = tested on: MALME-3M melanoma
# [51] = tested on: HCC-2998 colon
# [52] = tested on: SF-268 CNS
# [53] = tested on: UO-31 renal
# [54] = tested on: NCI-H460 lung
# [55] = tested on: IGROV1 ovarian
# [56] = tested on: M14 melanoma
# [57] = tested on: SR leukemia
# [58] = tested on: MCF7 breast
structure (smiles),measurement,setting,value
COc1ccc(Nc2ncccc2C(=O)NCc2cn(Cc3cccc(Oc4ccccc4)c3)nn2)cc1,GI50,[1],2.12 µM
same,TGI,[1],6.69 µM
same,GI50,[2],2.98 µM
same,TGI,[2],7.59 µM
same,GI50,[3],4.59 µM
same,TGI,[3],> 100 µM
same,GI50,[4],4.58 µM
same,TGI,[4],> 100 µM
same,GI50,[5],5.07 µM
same,TGI,[5],> 100 µM
same,GI50,[6],3.8 µM
same,TGI,[6],> 100 µM
same,GI50,[7],4.23 µM
same,TGI,[7],> 100 µM
same,GI50,[8],3.66 µM
same,TGI,[8],> 100 µM
same,GI50,[9],3.13 µM
same,TGI,[9],> 100 µM
same,GI50,[10],2.79 µM
same,TGI,[10],6.69 µM
same,GI50,[11],2.86 µM
same,TGI,[11],7.93 µM
same,GI50,[12],3.86 µM
same,TGI,[12],> 100 µM
same,GI50,[13],3.44 µM
same,TGI,[13],> 100 µM
same,GI50,[14],5.9 µM
same,TGI,[14],> 100 µM
same,GI50,[15],2.94 µM
same,TGI,[15],> 100 µM
same,GI50,[16],3.66 µM
same,TGI,[16],15.4 µM
same,GI50,[17],3.93 µM
same,TGI,[17],> 100 µM
same,GI50,[18],3.55 µM
same,TGI,[18],> 100 µM
same,GI50,[19],2.59 µM
same,TGI,[19],7.16 µM
same,GI50,[20],3.48 µM
same,TGI,[20],> 100 µM
same,GI50,[21],3.09 µM
same,TGI,[21],> 100 µM
same,GI50,[22],1.71 µM
same,TGI,[22],4.34 µM
same,GI50,[23],4.03 µM
same,TGI,[23],> 100 µM
same,GI50,[24],3.09 µM
same,TGI,[24],8.62 µM
same,GI50,[25],5.59 µM
same,TGI,[25],> 100 µM
same,GI50,[26],2.66 µM
same,TGI,[26],> 100 µM
same,GI50,[27],3.91 µM
same,TGI,[27],> 100 µM
same,GI50,[28],3.72 µM
same,TGI,[28],> 100 µM
same,GI50,[29],3.41 µM
same,TGI,[29],> 100 µM
same,GI50,[30],4.82 µM
same,TGI,[30],> 100 µM
same,GI50,[31],4.17 µM
same,TGI,[31],> 100 µM
same,GI50,[32],3.92 µM
same,TGI,[32],> 100 µM
same,GI50,[33],3.11 µM
same,TGI,[33],9.63 µM
same,GI50,[34],2.91 µM
same,TGI,[34],> 100 µM
same,GI50,[35],3.43 µM
same,TGI,[35],> 100 µM
same,GI50,[36],5.19 µM
same,TGI,[36],> 100 µM
same,GI50,[37],4.84 µM
same,TGI,[37],> 100 µM
same,GI50,[38],5.67 µM
same,TGI,[38],> 100 µM
same,GI50,[39],3.86 µM
same,TGI,[39],> 100 µM
same,GI50,[40],4.79 µM
same,TGI,[40],> 100 µM
same,GI50,[41],4.16 µM
same,TGI,[41],> 100 µM
same,GI50,[42],3.76 µM
same,TGI,[42],> 100 µM
same,GI50,[43],2.35 µM
same,TGI,[43],8.71 µM
same,GI50,[44],3.88 µM
same,TGI,[44],> 100 µM
same,GI50,[45],3.6 µM
same,TGI,[45],> 100 µM
same,GI50,[46],3.45 µM
same,TGI,[46],> 100 µM
same,GI50,[47],2.9 µM
same,TGI,[47],> 100 µM
same,GI50,[48],2.13 µM
same,TGI,[48],5.44 µM
same,GI50,[49],4.75 µM
same,TGI,[49],> 100 µM
same,GI50,[50],3.8 µM
same,TGI,[50],> 100 µM
same,GI50,[51],2.53 µM
same,TGI,[51],6.85 µM
same,GI50,[52],4.59 µM
same,TGI,[52],> 100 µM
same,GI50,[53],3 µM
same,TGI,[53],> 100 µM
same,GI50,[54],3.52 µM
same,TGI,[54],> 100 µM
same,GI50,[55],5.89 µM
same,TGI,[55],> 100 µM
CCCCP(CCCC)(CCCC)=C(C(=O)OC)C(C(=O)OC)=C1SC(C(=O)OC)=C(C(=O)OC)S1,TGI,[2],53.1 µM
same,TGI,[3],> 100 µM
same,TGI,[4],30.9 µM
same,TGI,[5],49.3 µM
same,TGI,[7],52.5 µM
same,TGI,[8],63.1 µM
same,TGI,[9],27.1 µM
same,TGI,[11],45.5 µM
same,TGI,[12],87 µM
same,TGI,[13],40.1 µM
same,TGI,[14],43.7 µM
same,TGI,[15],36.3 µM
same,TGI,[16],30.7 µM
same,TGI,[17],96 µM
same,TGI,[18],49 µM
same,TGI,[19],22.8 µM
same,TGI,[56],30.2 µM
same,TGI,[21],45.4 µM
same,TGI,[57],> 100 µM
same,TGI,[22],28.1 µM
same,TGI,[23],43.7 µM
same,TGI,[24],35.7 µM
same,TGI,[25],40 µM
same,TGI,[27],29.5 µM
same,TGI,[28],48.8 µM
same,TGI,[30],37.3 µM
same,TGI,[31],31.9 µM
same,TGI,[58],30.9 µM
same,TGI,[32],45 µM
same,TGI,[33],75.8 µM
same,TGI,[34],44.5 µM
same,TGI,[36],52.5 µM
same,TGI,[37],> 100 µM
same,TGI,[39],51 µM
same,TGI,[40],54.3 µM
same,TGI,[41],68.5 µM
same,TGI,[42],> 100 µM
same,TGI,[44],29.8 µM
same,TGI,[45],28.5 µM
same,TGI,[46],45.4 µM
same,TGI,[47],29.7 µM
same,TGI,[48],49.6 µM
same,TGI,[49],29.8 µM
same,TGI,[50],41.1 µM
same,TGI,[52],> 100 µM
same,TGI,[53],51.4 µM
same,TGI,[54],35.9 µM
same,TGI,[55],23.8 µM

# Reference: PubChem BioAssay (NCI)
